Converted amounts (≈) assume the structure as drawn.
Experiments:
[1] = system: Mycobacterium tuberculosis; test: Antimycobacterial activity against multidrug-resistant Mycobacterium tuberculosis by agar dilution method; format: functional
[2] = system: Mycobacterium tuberculosis; test: Antimycobacterial activity against rifampicin-resistant Mycobacterium tuberculosis by agar dilution method; format: functional

COc1ccc(C(c2ccc(OCCN(C(C)C)C(C)C)cc2)c2cccs2)cc1 (configuration not stated)
MIC [1]: 6.25 µM (≈ 2.65 µg/mL)
MIC [2]: 6.25 µM (≈ 2.65 µg/mL)

Source: ChEMBL document CHEMBL3414533, “Thiophene containing trisubstituted methanes [TRSMs] as identified lead against Mycobacterium tuberculosis” (Eur J Med Chem, 2015)
